# Laboratory results as given in patent US20080119527A1, “Composition for combating the localized hyperpigmentation of dark skin” (L'OREAL, priority 2006, published 2008).
# Tests used:
# Format in all cases: cell-based
# [1] = tested on: coculture of normal human keratinocytes and melanocytes; test: Melanogenesis modulation: 14C-thiouracil incorporation in keratinocyte/melanocyte coculture
# Procedure: Measurement of the melanogenesis-modulating effect of the copolymer of styrene/hydrolysed maleic anhydride (50/50) in sodium salt form, at 40% in water (SMA1000HNa® from the company Cray Valley), in the presence or absence of ascorbic acid, on a coculture of normal human keratinocytes and melanocytes.
# The melanogenesis-modulating effect of the copolymer SMA1000HNa® was tested according to the method described in patent FR-A-2 734 825, and also in the article by R. Schmidt, P. Krien and M. Régnier, Anal. Biochem., 235(2), 113-18, 1996.
# Briefly, the method comprises the steps consisting in:
# coculturing normal human keratinocytes/melanocytes in a medium containing the tested extract and also a labelled melanin precursor, in the present case C14-labelled thiouracil,
# lysing the cells containing the melanin with protein-degrading enzymes,
# passing the extract obtained through an anion-exchange filter with a pore diameter of less than or equal to 1 μm, and
# evaluating the amount of melanin bound by the filter by means of radioactive assay of the thiouracil.
# (§1) Specifically, 50 000 normal human keratinocytes and 17 000 normal human melanocytes are mixed together and inoculated per well in 96-well plates (Costar type) and cultured for three days in the differentiation medium. During the following three days, the culture medium is replaced daily with the defined test medium (containing the products to be evaluated, and also 3 μCi/ml of C14-labelled thiouracil).
# The following controls are prepared: • control culture: test medium • positive melanogenesis-stimulating control: test medium+1 mM tyrosine; • 3 positive melanogenesis-inhibiting controls: test medium+, respectively, 500 μM of kojic acid; 100 μM of arbutin; […] of lucinol (2-butyl-1,3-benzenediol).
# (§2) After one night, the cells are rinsed in phosphate buffer (phosphate-buffered saline, PBS). The proteins are precipitated using 5% trichloracetic acid (TCA) and washed in order to remove the free radioactivity. The proteins are incubated overnight at 37° C. using a proteinase K solution at 20 μl/ml in tris-HCl-Triton EDTA buffer.
# (§3) 50 μl of total extract are taken and transferred into a 96-well plate (Wallac) and 150 μl of scintillation liquid (Optiphase “Supermix”) are added. The rest of the extract, i.e. 950 μl, is filtered through a DEAE Filtermat filter. After rinsing, the filter covered with the “Meltilex” solid scintillant is transferred into a counting plate. The radioactivity is counted using a Wallac counter. The results are expressed as a percentage of the control according to the formula: […]
# 14CP is the mean of the disintegrations per minute (dpm) of 14C-thiouracil on 3 similar wells treated with a product (P);
# 3HP is the mean of the dpm of the corresponding 3H-leucine;
# 14CT is the mean of the dpm of 14 C-thiouracil on 3 similar control wells (T);
# 3HT is the mean of the dpm of the corresponding 3H-leucine.
# The ratio of the incorporation of thiouracil to the incorporation of leucine is calculated, to normalize the melanogenesis to the amount of proteins present in the well. This ratio reflects the melanogenesis modulation.
# [2] = tested on: coculture of normal human keratinocytes and melanocytes; test: Tritiated leucine incorporation (proliferation and early cytotoxicity indicator) in the coculture
# Source text: as §1
# The total radioactivity incorporated into the proteins is estimated by the incorporation of tritiated leucine, taken as the proliferation indicator and the early cytotoxicity indicator. On the day before the sample is taken, 1 μCi/ml of tritiated leucine is added to the test medium. It is considered that a product is cytotoxic when the content of tritiated leucine falls by at least 30%.
# as §2, §3
# [3] = tested on: Normal human melanocyte/keratinocyte cocultures (NHM/NHK); test: Protein assay per well (toxicity estimate) in UV-irradiated NHM/NHK coculture
# Procedure: (§4) Normal human melanocyte/keratinocyte cocultures (NHM/NHK) undergo 1 irradiation with UV radiation, repeated daily for 4 days, in the presence or absence of the products to be evaluated. The melanin synthesis is quantified as previously by means of the incorporation of ^14C-thiouracil present in the culture medium. In parallel, a protein assay is performed in each well in order to normalize the melanin synthesis and to estimate the toxicity of the product.
# (§5) For each experimental condition, cell lysates are performed by rinsing the cells with a phosphate buffer (PBS). The proteins are precipitated using 5% trichloracetic acid (TCA) and washed in order to remove the free radioactivity. The proteins are incubated over a weekend at 37° C. using a proteinase K solution at 20 μl/ml in tris HCl-Triton-EDTA buffer.
# (§6) 5 μl of total extract are taken and transferred into a 96-well plate (Wallac). The proteins are assayed using the Protein Assay Reagent assay kit (Pierce). The amount of proteins per well (P) will be used to normalize the melanogenesis. The rest of the extract is filtered on a DEAE Filtermat filter (Wallac). After rinsing, the filter covered with “Meltilex” solid scintillant (Wallac) is transferred into a Costar counting plate. The radioactivity is counted using a Wallac counter and allows quantification of the melanogenesis (M) by measurement of the ^14C-thiouracil (ccpm) incorporated by the cells.
# [4] = tested on: Normal human melanocyte/keratinocyte cocultures (NHM/NHK); test: Photoinduced melanogenesis (UV irradiation) in NHM/NHK coculture, anti-pigmentation protocol
# Source text: Measurement of the photoinduced melanogenesis-modulating effect of the polymer SMA1000HNa® in the presence or absence of ascorbic acid on a coculture of normal human keratinocytes and melanocytes (anti-pigmentation effect).
# as §4
# More specifically, the melanocytes and keratinocytes are inoculated, respectively, at 80 000 and 250 000 cells per well in 24-well plates in the keratinocyte differentiation medium. The plates are incubated for 3 days at 37° C. before treatment.
# To avoid photo-oxidation of one of its components, the culture medium is replaced at the time of irradiation with a solution of the products in PBS. The products are placed in contact with the cells for 15 minutes before irradiation.
# The UV irradiation is performed using a sun simulator. The delivered dose is 7 J/cm^2. Irradiation source: Oriel Xénon 1000W simulator+dichroic filter+WG 320/1.5 mm.
# The following controls are prepared:
# Non-irradiated control (quantification of the constitutive melanogenesis)
# Blank irradiation control
# 2 positive controls of photoinduced melanogenesis inhibition: (100 μM arbutin; 1 μM lucinol).
# After irradiation, the PBS is removed and the cells are incubated in a semi-defined culture medium to which are added the products and the ^14C-thiouracil (1 μCi/ml). This treatment is repeated daily for 4 days.
# as §5, §6
# Normalized melanogenesis (NM)=M/P
# Photo-induced melanogenesis (PIM)=NM (irradiated sample)−NM (non-irradiated sample)
# Anti-pigmenting effect of the product (%)=[[PIM(irradiated+treated sample)−PIM(irradiated sample)]/PIM(irradiated sample)]×100
smiles,measurement,setting,value
"OC[C@H]1O[C@@H](Oc2ccc(O)cc2)[C@H](O)[C@@H](O)[C@@H]1O [Arbutin, arbutin]",14C ThioU. (%/Control),[1]; 100 μM,−49%
same,14C ThioU./3H Leu.,[1]; 100 μM,−44%
same,3H Leu. (%/Control),[2]; 100 μM,−8%
same,Proteins (%/non-irradiated control),[3]; 100 μM + SSR,−15%
same,Anti-pigmenting effect of the product,[4]; 100 μM + SSR,−111%
same,PIM (%/non-irradiated control),[4]; 100 μM + SSR,−24%
"O=c1cc(CO)occ1O [Kojic acid, kojic acid]",14C ThioU. (%/Control),[1]; 500 μM,−56%
same,14C ThioU./3H Leu.,[1]; 500 μM,−52%
same,3H Leu. (%/Control),[2]; 500 μM,−8%
"N[C@@H](Cc1ccc(O)cc1)C(=O)O [Tyrosine, tyrosine]",14C ThioU. (%/Control),[1]; 1 mM,96%
same,14C ThioU./3H Leu.,[1]; 1 mM,85%
same,3H Leu. (%/Control),[2]; 1 mM,+6%
"O=C1O[C@H]([C@@H](O)CO)C(O)=C1O [vitamin C, ascorbic acid]",IC50,"[1]; Homo sapiens, vitamin C alone, read-out: IC50 (14C ThioU./3H Leu.)",~230 µM
same,14C ThioU. (%/Control),[1]; vitamin C 0.1 mM,−14%
same,14C ThioU./3H Leu.,[1]; vitamin C 0.1 mM,−14%
same,14C ThioU. (%/Control),[1]; vitamin C 0.3 mM,−69%
same,14C ThioU./3H Leu.,[1]; vitamin C 0.3 mM,−62%
same,14C ThioU. (%/Control),[1]; vitamin C 0.4 mM,−79%
same,14C ThioU./3H Leu.,[1]; vitamin C 0.4 mM,−72%
same,14C ThioU. (%/Control),[1]; vitamin C 0.6 mM,−76%
same,14C ThioU./3H Leu.,[1]; vitamin C 0.6 mM,−68%
same,3H Leu. (%/Control),[2]; vitamin C 0.1 mM,0%
same,3H Leu. (%/Control),[2]; vitamin C 0.3 mM,−17%
same,3H Leu. (%/Control),[2]; vitamin C 0.4 mM,−23%
same,3H Leu. (%/Control),[2]; vitamin C 0.6 mM,−23%
same,Proteins (%/non-irradiated control),"[3]; vitamin C 0.3 mM, UV irradiated",−12%
same,Proteins (%/non-irradiated control),"[3]; vitamin C 1 mM, UV irradiated",−19%
same,Proteins (%/non-irradiated control),"[3]; vitamin C 2 mM, UV irradiated",−19%
same,Proteins (%/non-irradiated control),"[3]; vitamin C 3 mM, UV irradiated",−22%
same,IC50,"[4]; Homo sapiens, vitamin C alone, read-out: IC50 (anti-pigmenting effect)",~470 µM
same,Anti-pigmenting effect of the product,[4]; vitamin C 0.3 mM,−40%
same,PIM (%/non-irradiated control),[4]; vitamin C 0.3 mM,134%
same,Anti-pigmenting effect of the product,[4]; vitamin C 1 mM,−65%
same,PIM (%/non-irradiated control),[4]; vitamin C 1 mM,78%
same,Anti-pigmenting effect of the product,[4]; vitamin C 2 mM,−90%
same,PIM (%/non-irradiated control),[4]; vitamin C 2 mM,23%
same,Anti-pigmenting effect of the product,[4]; vitamin C 3 mM,−100%
same,PIM (%/non-irradiated control),[4]; vitamin C 3 mM,0%
